We go through one compound from US9492471B2, “Methods of treating a disease or disorder associated with Bruton'S Tyrosine Kinase” (Celgene Avilomics Research, Inc., priority 2013, dated 2016).

As a reminder, the inhibition is the drop in the measured response relative to a control, in per cent.

Test in all cases: HotSpot kinase profiling
Assay type in all cases: biochemical

The target of one experiment is T1, PKG1a (Homo sapiens, UniProt Q13976).
T1 construct: purchased Reaction Biology Corp
T1 sequence (Q13976 1-671): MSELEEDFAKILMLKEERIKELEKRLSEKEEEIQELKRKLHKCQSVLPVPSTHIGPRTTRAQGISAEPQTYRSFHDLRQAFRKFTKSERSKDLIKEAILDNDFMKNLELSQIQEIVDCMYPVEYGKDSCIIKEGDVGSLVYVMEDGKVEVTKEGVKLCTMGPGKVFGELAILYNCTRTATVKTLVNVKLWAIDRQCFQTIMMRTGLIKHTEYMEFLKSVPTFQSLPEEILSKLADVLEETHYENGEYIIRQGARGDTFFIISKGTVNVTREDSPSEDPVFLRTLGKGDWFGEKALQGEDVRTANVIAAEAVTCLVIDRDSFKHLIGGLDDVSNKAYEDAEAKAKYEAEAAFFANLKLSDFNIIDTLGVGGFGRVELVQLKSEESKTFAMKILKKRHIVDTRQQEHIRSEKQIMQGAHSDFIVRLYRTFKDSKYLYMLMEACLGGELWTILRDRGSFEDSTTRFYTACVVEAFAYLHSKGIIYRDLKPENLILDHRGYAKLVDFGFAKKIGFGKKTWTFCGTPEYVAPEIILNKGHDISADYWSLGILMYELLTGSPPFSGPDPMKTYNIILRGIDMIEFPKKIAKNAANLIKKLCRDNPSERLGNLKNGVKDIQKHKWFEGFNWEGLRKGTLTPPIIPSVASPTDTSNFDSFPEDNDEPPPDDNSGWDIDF
In short, it runs like this:
(§1)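 Radiometric kinase assay with P81 filter capture; each kinase was added to fresh substrate plus cofactors in reaction buffer and incubated 2 h at room temperature. Unreacted phosphate was washed off with 0.1% phosphoric acid before detection; percent inhibition is relative to DMSO control, averaged over replicates.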

Another experiment has as its target T2, CDK6/cyclin D3 (Homo sapiens, UniProt Q00534).
T2 construct: purchased Reaction Biology Corp
Summed up: as §1

In another experiment the target is T3, MAPKAPK5/PRAK (Homo sapiens, UniProt Q8IW41).
T3 construct: purchased Reaction Biology Corp
T3 sequence (Q8IW41 1-473): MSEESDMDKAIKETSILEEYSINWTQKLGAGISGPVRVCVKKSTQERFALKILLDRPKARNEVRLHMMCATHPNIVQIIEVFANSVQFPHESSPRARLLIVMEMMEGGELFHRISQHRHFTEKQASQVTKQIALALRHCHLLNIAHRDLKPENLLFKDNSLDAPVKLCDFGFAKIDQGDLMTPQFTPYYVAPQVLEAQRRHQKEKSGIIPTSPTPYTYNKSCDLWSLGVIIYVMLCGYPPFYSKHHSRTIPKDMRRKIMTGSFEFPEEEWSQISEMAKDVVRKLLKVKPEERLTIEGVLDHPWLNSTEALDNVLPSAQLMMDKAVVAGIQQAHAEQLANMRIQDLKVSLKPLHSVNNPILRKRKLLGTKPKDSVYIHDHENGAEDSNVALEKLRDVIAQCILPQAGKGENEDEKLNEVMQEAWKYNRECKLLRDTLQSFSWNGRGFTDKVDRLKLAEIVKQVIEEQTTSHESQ
In short, it runs like this:
as §1

Another experiment has as its target T4, AXL (Homo sapiens, UniProt P30530).
T4 construct: purchased Reaction Biology Corp
T4 sequence (P30530 26-894): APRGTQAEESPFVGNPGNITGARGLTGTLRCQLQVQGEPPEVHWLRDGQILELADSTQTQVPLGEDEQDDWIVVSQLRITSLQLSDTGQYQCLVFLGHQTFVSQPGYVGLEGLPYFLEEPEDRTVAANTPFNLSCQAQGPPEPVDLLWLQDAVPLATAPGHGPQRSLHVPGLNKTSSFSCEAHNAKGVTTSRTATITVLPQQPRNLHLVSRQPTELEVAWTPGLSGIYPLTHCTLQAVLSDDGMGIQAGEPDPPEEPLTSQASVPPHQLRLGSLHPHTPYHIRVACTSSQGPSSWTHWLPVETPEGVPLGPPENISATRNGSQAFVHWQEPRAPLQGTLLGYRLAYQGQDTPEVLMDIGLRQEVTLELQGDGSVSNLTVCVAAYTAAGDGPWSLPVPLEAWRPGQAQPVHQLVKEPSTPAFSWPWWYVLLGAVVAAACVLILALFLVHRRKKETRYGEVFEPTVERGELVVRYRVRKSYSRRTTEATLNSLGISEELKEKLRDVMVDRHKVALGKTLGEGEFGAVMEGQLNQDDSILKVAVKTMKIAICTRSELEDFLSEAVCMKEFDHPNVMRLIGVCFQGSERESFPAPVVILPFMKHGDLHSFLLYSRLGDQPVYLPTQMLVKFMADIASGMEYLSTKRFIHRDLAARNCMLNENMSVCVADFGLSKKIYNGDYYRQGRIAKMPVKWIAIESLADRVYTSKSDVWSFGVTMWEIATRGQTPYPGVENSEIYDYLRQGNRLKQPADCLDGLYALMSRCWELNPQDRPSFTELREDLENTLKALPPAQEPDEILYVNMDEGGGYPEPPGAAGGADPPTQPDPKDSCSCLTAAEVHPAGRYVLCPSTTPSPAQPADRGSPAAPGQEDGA
Summed up: as §1

The next experiment addresses T5, EPHA5 (Homo sapiens, UniProt P54756).
T5 construct: purchased Reaction Biology Corp
In short, it runs like this: as §1

The target of another experiment is T6, PKCa (Homo sapiens, UniProt P17252).
T6 construct: purchased Reaction Biology Corp
In short, it runs like this:
as §1

Where [1] appears, read: read-out: % Enzyme Activity (relative to DMSO controls) Run 1.
[2] abbreviates: read-out: % Enzyme Activity (relative to DMSO controls) Run 2.

Read-outs that look alike come from different tables or passages of the source.

T5 sequence (P54756 25-1037): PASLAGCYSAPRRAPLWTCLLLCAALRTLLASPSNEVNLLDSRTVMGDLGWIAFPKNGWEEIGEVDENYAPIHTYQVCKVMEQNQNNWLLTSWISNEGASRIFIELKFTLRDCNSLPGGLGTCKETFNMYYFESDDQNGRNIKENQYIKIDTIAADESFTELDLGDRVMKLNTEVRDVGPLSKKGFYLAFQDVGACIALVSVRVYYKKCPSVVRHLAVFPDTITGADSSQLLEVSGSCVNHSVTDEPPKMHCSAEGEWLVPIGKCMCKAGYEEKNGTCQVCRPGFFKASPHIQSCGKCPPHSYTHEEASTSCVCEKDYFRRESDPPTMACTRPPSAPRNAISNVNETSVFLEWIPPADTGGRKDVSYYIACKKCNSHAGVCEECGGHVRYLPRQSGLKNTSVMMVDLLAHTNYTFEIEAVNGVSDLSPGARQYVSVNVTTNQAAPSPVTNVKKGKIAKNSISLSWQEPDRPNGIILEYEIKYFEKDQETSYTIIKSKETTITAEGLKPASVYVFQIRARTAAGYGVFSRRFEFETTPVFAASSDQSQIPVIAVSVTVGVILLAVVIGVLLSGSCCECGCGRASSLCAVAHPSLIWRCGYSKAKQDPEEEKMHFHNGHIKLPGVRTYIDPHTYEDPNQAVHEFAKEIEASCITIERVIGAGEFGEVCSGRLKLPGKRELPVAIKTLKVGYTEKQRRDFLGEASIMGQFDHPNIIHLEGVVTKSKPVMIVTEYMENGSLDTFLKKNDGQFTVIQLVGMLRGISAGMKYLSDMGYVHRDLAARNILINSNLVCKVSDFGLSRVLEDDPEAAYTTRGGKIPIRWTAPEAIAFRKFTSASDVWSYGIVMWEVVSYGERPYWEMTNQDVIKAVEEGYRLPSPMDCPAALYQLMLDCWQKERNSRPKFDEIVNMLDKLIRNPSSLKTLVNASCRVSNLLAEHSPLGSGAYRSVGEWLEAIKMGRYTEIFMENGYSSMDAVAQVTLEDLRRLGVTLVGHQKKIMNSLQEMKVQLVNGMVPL
T2 sequence (Q00534 whole entry): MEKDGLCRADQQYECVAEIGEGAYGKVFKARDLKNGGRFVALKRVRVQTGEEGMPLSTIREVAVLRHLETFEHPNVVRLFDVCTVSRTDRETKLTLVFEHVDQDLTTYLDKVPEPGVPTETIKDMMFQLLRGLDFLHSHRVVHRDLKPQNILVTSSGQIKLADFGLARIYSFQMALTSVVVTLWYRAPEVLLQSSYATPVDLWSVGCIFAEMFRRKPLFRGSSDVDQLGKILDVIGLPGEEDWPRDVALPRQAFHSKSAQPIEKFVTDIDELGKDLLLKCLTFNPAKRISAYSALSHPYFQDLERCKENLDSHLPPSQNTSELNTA
T2 sequence (P30281 whole entry partner): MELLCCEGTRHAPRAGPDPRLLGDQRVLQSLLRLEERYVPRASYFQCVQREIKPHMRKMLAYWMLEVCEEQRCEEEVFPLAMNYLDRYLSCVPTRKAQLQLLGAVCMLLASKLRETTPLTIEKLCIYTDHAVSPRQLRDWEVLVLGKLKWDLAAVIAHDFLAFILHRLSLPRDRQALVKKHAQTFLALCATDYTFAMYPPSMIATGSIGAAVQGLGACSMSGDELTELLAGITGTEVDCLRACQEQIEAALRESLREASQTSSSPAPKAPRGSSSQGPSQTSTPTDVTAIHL

Regarding `C=CC(=O)Nc1cccc(Nc2nc(Nc3ccc(OCCOC)c(F)c3)ncc2F)c1` [Compound 2], the inhibition at 3 µM is 8.73% against PKG1a; 0.16% on CDK6/cyclin D3; -11.6% at MAPKAPK5/PRAK; 51.3% against AXL; 8.66% on EPHA5; 11.4% against PKCa. Besides, the remaining activity at 3 µM on PKG1a (setting [1]) worked out at 88%; at PKG1a (setting [2]) it was 94.5%; on CDK6/cyclin D3 (setting [1]), 99.5%; at CDK6/cyclin D3 (setting [2]), 100%; at MAPKAPK5/PRAK (setting [1]), 110%; on MAPKAPK5/PRAK (setting [2]), 113%. Further, the remaining activity at 3 µM is 48.6% at AXL (setting [1]); 48.8% on AXL (setting [2]); 89.1% on EPHA5 (setting [1]); 93.6% on EPHA5 (setting [2]); 88.4% at PKCa (setting [1]); 88.8% on PKCa (setting [2]).
